The results in this text go back to patent US9823260B2, “Method to increase bioavailability of the delta-opioid receptor for management of pain and neuropsychiatric disorders” (priority 2014, dated 2017).

Assay [1] has as its system PC12 cells expressing SSF-DOR. As to the kind of experiment: Fixed cell immunofluorescence assay of DOR localization (intracellular/Golgi retention) in PC12 cells expressing SSF-DOR. Format: cell-based, rat. The settings on record: for percentage of cells with internal localization of DOR within the Golgi region: PI3K inhibitor 10 μM alone; for percentage of cells with internal localization of DOR within the Golgi region / amount of cells exhibiting intracellular DOR (retention) after inhibitor alone: no NGF; for amount of cells exhibiting intracellular DOR (retention) after inhibitor alone: Wortmannin 10 μM, Chelerythrine 5 μM, PP2 10 μM, Akt ½ kinase inhibitor 1 μM. From the text:
PC12 cells undergo neuronal specific signaling and differentiation in response to NGF.
To determine the mechanism regulating NGF-induced DOR retention, pharmacologic inhibition of known NGF-TrkA signaling molecules and quantification of the DOR localization via fixed cell immunofluorescence were employed. […]
Alternatively, it was chosen to use the neuroendocrine PC12 cell line as the model system.
To confirm that the NGF-induced internal localization is retention and not only due to increased protein production in response to NGF, the mechanistic evaluation was continued in the presence of Cycloheximide (CHX, 3 μg/mL) to inhibit new protein synthesis. […] Again referring to FIG. 3, for the evaluation of required downstream signaling targets, pharmacologic inhibition of TrkA effectors was performed to determine the pathway required for NGF-induced retention of DOR.
It was therefore sought to determine if inhibition of PI3K via treatment with Wortmannin alone was sufficient to induce intracellular retention of DOR using a fixed cell immunofluorescence assay.

Assay [2] relates to SSF-DOR expressing PC12 cells. As to the kind of experiment: Fluorescence antibody internalization assay of the surface pool of DOR. The format is cell-based, rat. Particulars: 1-hour treatment; NGF 100 ng/mL, Wortmannin 10 μM, LY294002 10 μM, 740Y^PDGFR 25 μg/mL, DADLE 10 μM. As to the method:
To eliminate the possibility that surface localized DOR was being actively internalized following PI3K inhibition, a fluorescence antibody internalization assay was performed in combination with pharmacologic inhibition of PI3K. SSF-DOR expressing PC12 cells were incubated with a cell-impermeable primary M1-Alexa 647 conjugated antibody to label the surface pool of receptors. The cells were treated with pharmacologic agents for 1 hour as in previous experiments, and receptor internalization was determined by adding a cell-impermeable secondary Alexa-488 conjugated antibody that recognizes the M1 primary antibody. The amount of internalization is quantified using a Pearson's Correlation Coefficient to determine the colocalization of the primary and secondary antibodies.

Assay [3] has as its system SSF-MOR expressed in PC12 cells. As to the kind of experiment: Fixed cell immunofluorescence assay of MOR localization in PC12 cells expressing SSF-MOR. The format is cell-based, rat. Particulars: 1-hour; NGF 100 ng/mL, Wortmannin 10 μM, LY294002 10 μM. As for the experimental part: Previously, it was shown that the NGF-induced retention is specific to DOR and has minimal effect on MOR^37. It was therefore asked if retention of DOR via PI3K inhibition was also specific to DOR. To determine this specificity, the sufficiency of NGF, and PI3K inhibition by Wortmannin or LY294002, to promote intracellular retention of SSF-MOR expressed in PC12 cells was evaluated using the fixed cell immunofluorescence assay. Under basal no treatment conditions, SSF-MOR was prominently localized to the cell surface. Upon NGF (100 ng/mL), Wortmannin (10 μM), or LY294002 (10 μM) treatment for 1-hour, the majority of the SSF-MOR signal was localization to the cell surface with minimal overlap within the Golgi region.

In assay [4] the test system is primary Trigeminal Ganglion (TG) neurons transfected with SSF-DOR. As to the kind of experiment: Fixed cell immunofluorescence of DOR localization in primary Trigeminal Ganglion neurons transfected with SSF-DOR. The format is cell-based, mice. From the text:
To begin the example, confirmation that SSF-DOR was internally retained and localized with the Golgi complex in primary Trigeminal Ganglion (TG) sensory neurons was desired. First, primary TGs from adult mice were isolated and cultured. The SSF-DOR DNA construct was then transiently transfected into cultured TGs for subsequent localization analysis. Using a fixed-cell immunofluorescence assay, the location of SSF-DOR with an Alexa-488 conjugated anti-Flag M1 antibody was visualized, and the receptor signal was compared to an antibody against the Golgi marker GPP130. […] PC12 cells expressing SSF-DOR have a membrane localized expression pattern with little to no Golgi colocalization when analyzed via fixed cell fluorescence confocal microscopy. […]
By using the neuroendocrine PC12 cell line as our model system, PTEN inhibition was identified as a tool to prevent the internal retention of DOR following NGF administration. […] Graphical quantification of the percentage of DOR localized within the Golgi compared to the total cell DOR fluorescence is shown in FIG. 9 (top), and the Pearson's Correlation Coefficient between the DOR fluorescence and the GPP130 Golgi fluorescence in FIG. 9 (bottom).

Another assay has as its system DOR. In words: cAMP EPAC FRET biosensor assay of DOR signaling in live PC12 cells. Format: cell-based, rat.
The mark [5] stands for this setting: with NGF and CHX, Y-27632 5 μM, U0126 10 μM, Akt1/2 Kinase Inhibitor 500 nM, U73122 10 μM, Chelerythrine 10 μM, PP2 500 nM.

Like-named read-outs stand apart in the source and are kept apart here.

Regarding `C[C@@H](N)[C@H]1CC[C@H](C(=O)Nc2ccncc2)CC1` [Y-27632], the “effect on NGF-induced retention of DOR” value in assay [1] (setting [5]) was “no statistical effect”.
On to `COC[C@H]1OC(=O)c2coc3c2[C@@]1(C)C1=C(C3=O)[C@@H]2CCC(=O)[C@@]2(C)C[C@H]1OC(C)=O` [Wortmannin], for which the “percentage of cells with internal localization of DOR” value in assay [1] (NGF 100 ng/ml and Wortmannin 10 μM) was 87%. Besides, the “percentage of cells with internal localization of DOR within the Golgi region” value in assay [1] came to 88%. Besides, the “percentage of cells with intracellular retention of DOR” value in assay [1] (Wortmannin 10 μM in combination with NGF, 1-hour CHX chase) worked out at 97%.
`O=C(NCc1c(F)cccc1F)c1sccc1OCc1ccc(Cl)cc1Cl` [AS1938909]: in assay [1], the “DOR retention in combination with NGF versus NGF treatment alone” value was “not significantly different”. The “percentage of cells exhibiting Golgi localized DOR and percentage of DOR fluorescence within the Golgi” value in assay [1] (SHIP2 inhibitor AS1938909 10 μM only) is recorded as “significant increase”.
With `O=c1cc(N2CCOCC2)oc2c(-c3ccccc3)cccc12` [LY294002], the “percentage of cells with internal localization of DOR within the Golgi region” value in assay [1] is reported as 88%.
For the molecule “NGF: Nerve Growth Factor; initiates internal retention of DOR in PC12 cells via TrkA”, in assay [2], the “colocalization of primary and secondary antibody (Pearson's Correlation Coefficient; internalization of surface DOR)” value is “very strong colocalization”. Further, the “change in intracellular retention of MOR (percentage of cells with Golgi localized MOR and percentage of MOR fluorescence within the Golgi)” value in assay [3] is reported as “non-significant change”. In addition, in assay [1] (NGF 100 ng/mL, 1 hour (FIG. 3 right)), the “percentage of cells with internal localization of DOR colocalized with the Golgi” value is 80%. Besides, in assay [1] (NGF 100 ng/mL, 1 hour, no CHX), the “percentage of transfected cells with internal localization of DOR” value was determined as 90%. Also, the “percentage of cells imaged with internal localization of DOR” value in assay [1] (NGF added 1 hour before CHX addition and chased for 1 hour) is on record as 80%. The “colocalization between DOR and GPP130 Golgi marker (Pearson's Correlation Coefficient)” value in assay [4] (NGF treatment) was “significant increase in colocalization”.
As to `COc1ccc2c(c1)CC[C@@H]1[C@@H]2CC[C@]2(C)[C@@H](NCCCCCCN3C(=O)C=CC3=O)CC[C@@H]12` [U73122], the “effect on NGF-induced retention of DOR” value in assay [1] (setting [5]) is “no statistical effect”.
On to `O=c1[nH]c2ccccc2n1C1CCN(Cc2ccc(-c3nc4cc5nc[nH]c5cc4nc3-c3ccccc3)cc2)CC1` [Akt1/2 Kinase Inhibitor], for which the “amount of cells exhibiting intracellular DOR (retention) after inhibitor alone” value in assay [1] is reported as “did not significantly increase”. In assay [1] (setting [5]), the “effect on NGF-induced retention of DOR” value is given as “no statistical effect”.
Consider `COc1ccc2c(c[n+](C)c3c4cc5c(cc4ccc23)OCO5)c1OC` [Chelerythrine], for which the “amount of cells exhibiting intracellular DOR (retention) after inhibitor alone” value in assay [1] is “did not significantly increase”. Also, the “effect on NGF-induced retention of DOR” value in assay [1] (setting [5]) is on record as “no statistical effect”.
For `CC(C)(C)n1nc(-c2ccc(Cl)cc2)c2c(N)ncnc21` [PP2], in that order: “did not significantly increase” and “no statistical effect”.
Take `C[C@@H]1C[C@@H]([C@H](O)CC2CC(=O)NC(=O)C2)C(=O)[C@@H](C)C1` [CHX, Cycloheximide]: the “percentage of SSF-DOR expressing PC12 cells with internal localization of DOR” value in assay [1] (CHX 3 μg/mL alone, 1 hour) is listed as 16%.
Consider `N#CC(=C(/N)Sc1ccccc1N)/C(C#N)=C(\N)Sc1ccccc1N` [U0126], for which the “effect on NGF-induced retention of DOR” value in assay [1] is on record as “no statistical effect”.
Take `CC(C)(C)C(=O)Nc1ccc2c(c1)C(=O)C(=O)c1ccccc1-2` [SF1670]: the “effect of PTEN inhibitor on NGF-induced retention of DOR” value in assay [1] (with NGF 100 ng/mL, bpV(HOptic) 10 μM) was “prevented NGF-induced retention of DOR in a dose dependent manner”. Besides, the “inhibition of cAMP upon DADLE treatment after CNA blockade and PTEN inhibition” value in the assay on DOR (NGF pre-treatment, CNA blockade, SF1670 10 μM, Forskolin, DADLE) was determined as 80%. In the assay with DOR (SF1670 10 μM after CNA versus CNA alone), the “increase of cAMP inhibition over that obtained after CNA alone” value is 61%. Moreover, the “percentage of DOR fluorescence localized with the Golgi compared to the total DOR fluorescence” value in assay [4] (SF1670 alone and in combination with NGF) is on record as “decreased significantly”.
With `CC(C)C[C@@H](NC(=O)[C@H](Cc1ccccc1)NC(=O)CNC(=O)[C@@H](C)NC(=O)[C@@H](N)Cc1ccc(O)cc1)C(=O)O` [DADLE], in assay [2], the “colocalization of primary and secondary antibody (Pearson's Correlation Coefficient; internalization of surface DOR)” value is “minimal antibody colocalization”. For the same molecule, the “inhibition of Forskolin induced cAMP by DADLE” value in the assay with DOR (1 hour NGF pretreatment, Forskolin 5 μM, DADLE 10 μM) is listed as 81%.
